Laboratory results: US8455226B2, “Method for producing metal nanoparticles” (Janssen Pharmaceutica N.V., priority 2006, dated 2013)

Tests used:
some bacteria = conditions: cited from earlier work
Escherichia coli = test: Antimicrobial activity on a solid growth medium for Escherichia coli (Example 4); format: cell-based; conditions: 24 hours at 30° C., plated 2×10^6 CFU/mL
Method: 100 mL of a silver suspension with an Ag concentration of 5 mM, in the form of nanosilver deposited on Lactobacillus fermentum biomass as obtained in example 1, was plated onto a solidified growth medium for culturing Escherichia coli (Luria Bertani Agar). As a control, 100 mL of a solution of 5 mM AgNO3 in sterile milliQ water with 0.1 N NaOH were plated on the same growth medium. This setting agreed with a total amount of 0.05 mg Ag per agar plate, or 11 mg Ag per m^2 of total surface area. This experiment was repeated with twofold the latter concentrations, i.e. with 0.11 mg Ag per agar plate or 22 mg Ag per m^2 of total surface area.
By plating these silver suspensions, a homogeneous layer of Ag(I)NO3, or nano-Ag respectively, was applied onto the solidified growth media.
After pre-treating the solidified growth medium in this way, 100 μL of a 2×10^6 CFU/mL Escherichia coli suspension in physiological solution (8.5 g NaCl/L in sterile water) was plated on the pre-treated agar plates. The plates were then incubated during 24 hours at 30° C. and colonies were counted. The count results are illustrated by FIG. 1. At nano-Ag concentrations of 11 mg Ag/m^2 and 22 mg Ag/m^2, no viable cells of E. coli could be detected on the treated solid growth medium (<detection limit (D.L.)=1×10^1 CFU/ml). […]

Compound	concentration known to inhibit the growth of some bacteria (some bacteria) [mg/L]	viable cells of E. coli on treated solid growth medium (Escherichia coli; 11 mg Ag/m^2)	viable cells of E. coli on treated solid growth medium (Escherichia coli; 22 mg Ag/m^2)
OO [Hydrogen peroxide]	25	–	–
O=[N+]([O-])[O-].[Ag+] [Ag(I)NO3, AgNO3]	–	4×10^2 CFU/ml	1×10^2 CFU/ml
